For series [1], the system named is PANK2 silenced human neuroblastoma IMR32 cells (PANK2−/−). The series is described as follows: Coenzyme A assay in PANK2 silenced cells (LC-MS quantification of free CoA). It is filed as cell-based. Particulars: compound added twice (24 h + 24 h), relative to 0.1% DMSO controls. Summed up:
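PANK2 shRNA-silenced IMR32 neuroblastoma cells were treated with compound (0.1% DMSO) for 24 h, then re-dosed with fresh compound for a further 24 h at 37 °C. TFA extracts of 1×10^6 cells were assayed for free CoA by LC-MS/MS (MRM 768.1→261.6/136.1). Results are given as fold change versus DMSO controls.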

The nature of series [2]: Stability in human plasma. It is filed as in vitro ADME. Particulars: 37° C.; for t1/2, Human Plasma, Diastereoisomer B: 3 μM. On the procedure:
(§1) Compounds and positive control samples were dissolved in 100% DMSO at 3 mM. To investigate the stability of the test compounds in plasma, samples were made by diluting test compounds into plasma from the stock solutions to obtain a test compound concentration of 3 μM (0.1% DMSO). Before addition of a test compound, 990 μl of plasma were preincubated at 37° C. for 5 min in eppendorf. After addition of a test compound, 70 μl for each time point were transferred to a 96-deepwell plate, previously warmed at 37° C. in a DUBNOFF water bath. Each compound was tested at five time points, in duplicate (10, 20, 30, 40 and 60 min). At each time point, an aliquot of 50 μl was taken and transferred to a new 96-deepwell plate, and the reaction was stopped with 200 μl of 100% acetonitrile containing 0.1% formic acid and the appropriate internal standard. Then samples were centrifuged at 1100×g for 30 min at +4° C. and supernatants were transferred to a new 96-deepwell plate. Samples were evaporated under N2 and reconstituted in H2O/ACN 0.1% Formic Acid (98:2). Analysis was performed without a calibration curve (Acquity UPLC-Waters; SciexAPI4000). Time 0 was obtained by adding acetonitrile before addition of the test compound.

Series [3] in a line: Stability in mouse plasma. It is filed as in vitro ADME. On the procedure:
as §1

Where [4] appears, read: human, plasma, Diastereoisomer A (upfield shift in 31P NMR), read-out: t1/2, Human Plasma, Diastereoisomer A (converted).
The mark [5] stands for this setting: human, plasma, Diastereoisomer B, read-out: t1/2, Human Plasma, Diastereoisomer B (converted).
Setting [6] is: Diastereoisomer A (upfield shift in 31P NMR), read-out: t1/2, Human Plasma, Diastereoisomer A (converted).
Where [7] appears, read: Diastereoisomer A (upfield shift in 31P NMR), 3 μM, 37° C., mouse plasma, read-out: t1/2, Mouse Plasma, Diastereoisomer A.
The mark [8] stands for this setting: Diastereoisomer B, 3 μM, 37° C., mouse plasma.

Take `COC(=O)CCNC(=O)[C@@H]1OP(=O)(OCOC(=O)C2(C)CN(C(=O)OC(C)(C)C)C2)OCC1(C)C` (stereo partly drawn) [Compound No. 85, 1-(tert-butyl) 3-((((4R)-4-((3-methoxy-3-oxopropyl)carbamoyl)-5,5-dimethyl-2-oxido-1,3,2-dioxaphosphinan-2-yl)oxy)methyl) 3-methylazetidine-1,3-dicarboxylate]: the “PANK2−/− CoA (Fold Increase): fold increase in Coenzyme A (CoA) levels relative to controls” value in series [1] was 216.8 Fold Increase. In addition, the half-life at 3 µM in series [2] (setting [4]) was less than 9.6 min; in series [2] (setting [5]) it was less than 9.6 min; in series [3] (mouse, plasma), less than 9.6 min. In series [3] (mouse, plasma, 3 µM), the “t1/2, Mouse Plasma, Diastereoisomer B” value is less than 9.6 min.
For the compound `COC(=O)CCNC(=O)[C@@H]1OP(=O)(N[C@@H](C)C(=O)OCCN2CCOCC2)OCC1(C)C` (stereo partly drawn) [compound 27, methyl 3-((4R)-5,5-dimethyl-2-(((S)-1-(2-morpholinoethoxy)-1-oxopropan-2-yl)amino)-2-oxido-1,3,2-dioxaphosphinane-4-carboxamido)propanoate], the “PANK2−/− CoA (Fold Increase): fold increase in Coenzyme A (CoA) levels relative to controls” value in series [1] is 1.49 Fold Increase. Besides, the half-life at 3 µM is greater than 60 min in series [2] (setting [4]) and less than 9.6 min in series [3] (mouse, plasma).
Consider `COC(=O)CCNC(=O)[C@@H]1OP(=O)(NCCc2ccc(F)cc2)OCC1(C)C` (stereo partly drawn) [compound 129, methyl 3-((4R)-2-((4-fluorophenethyl)amino)-5,5-dimethyl-2-oxido-1,3,2-dioxaphosphinane-4-carboxamido)propanoate], for which the “PANK2−/− CoA (Fold Increase): fold increase in Coenzyme A (CoA) levels relative to controls” value in series [1] stood at 0.9 Fold Increase. The half-life at 3 µM is greater than 60 min in series [2] (setting [6]) and less than 9.6 min in series [3] (setting [7]). Moreover, the “t1/2, Human Plasma, Diastereoisomer B” value in series [2] (Diastereoisomer B) is greater than 1 h. The “t1/2, Mouse Plasma, Diastereoisomer B” value in series [3] (setting [8]) is less than 9.6 min.
`COC(=O)CCNC(=O)[C@@H]1O[P@@](=O)(N[C@@H](C)C(=O)OC2Cc3ccccc3C2)OCC1(C)C` [compound 43, 2,3-dihydio-1H-inden-2-yl ((2R,4R)-4-((3-methoxy-3-oxopropyl)carbamoyl)-5,5-dimethyl-2-oxido-1,3,2-dioxaphosphinan-2-yl)-L-alaninate]: the “PANK2−/− CoA (Fold Increase): fold increase in Coenzyme A (CoA) levels relative to controls” value in series [1] came to 1.97 Fold Increase. In addition, the half-life at 3 µM in series [2] (setting [4]) was greater than 60 min; in series [3] (mouse, plasma), less than 9.6 min.
For `CC(C)(C)C(=O)OCOP1(=O)OCC(C)(C)[C@H](C(=O)NCCC(=O)OC2CCOC2)O1` (stereo partly drawn) [Compound No. 94, (((4R)-5,5-dimethyl-2-oxido-4-((3-oxo-3-((tetrahydrofuran-3-yl)oxy)propyl)carbamoyl)-1,3,2-dioxaphosphinan-2-yl)oxy)methyl pivalate], in series [1], the “PANK2−/− CoA (Fold Increase): fold increase in Coenzyme A (CoA) levels relative to controls” value was 13.14 Fold Increase. The half-life at 3 µM in series [2] (setting [4]) was 40.8 min; in series [2] (setting [5]), less than 9.6 min; in series [3] (mouse, plasma), less than 9.6 min. The “t1/2, Mouse Plasma, Diastereoisomer B” value in series [3] (mouse, plasma, 3 µM) is less than 9.6 min.
For the compound `COC(=O)CCNC(=O)[C@@H]1OP(=O)(NCCN2CCOCC2)OCC1(C)C` (stereo partly drawn) [compound 126, methyl 3-((4R)-5,5-dimethyl-2-((2-morpholinoethyl)amino)-2-oxido-1,3,2-dioxaphosphinane-4-carboxamido)propanoate], the “PANK2−/− CoA (Fold Increase): fold increase in Coenzyme A (CoA) levels relative to controls” value in series [1] turned out to be 1.33 Fold Increase. The half-life at 3 µM in series [2] (setting [6]) is greater than 60 min; in series [3] (setting [7]) it was less than 9.6 min. Moreover, in series [2] (Diastereoisomer B), the “t1/2, Human Plasma, Diastereoisomer B” value is greater than 1 h. The “t1/2, Mouse Plasma, Diastereoisomer B” value in series [3] (setting [8]) is less than 9.6 min.
For `CC(C)(C)C(=O)OCOP1(=O)OCC(C)(C)[C@H](C(=O)NCCC(=O)OCc2ncccn2)O1` (stereo partly drawn) [Compound No. 95, (((4R)-5,5-dimethyl-2-oxido-4-((3-oxo-3-(pyrimidin-2-ylmethoxy)propyl)carbamoyl)-1,3,2-dioxaphosphinan-2-yl)oxy)methyl pivalate], in series [1], the “PANK2−/− CoA (Fold Increase): fold increase in Coenzyme A (CoA) levels relative to controls” value came to 54.03 Fold Increase. Also, the half-life at 3 µM is greater than 60 min in series [2] (setting [4]); less than 9.6 min in series [2] (setting [5]); less than 9.6 min in series [3] (mouse, plasma). Moreover, the “t1/2, Mouse Plasma, Diastereoisomer B” value in series [3] (mouse, plasma, 3 µM) is less than 9.6 min.
For the compound `Cc1cc(COC(=O)CCNC(=O)[C@@H]2OP(=O)(N[C@@H](C)C(=O)OCCc3ccccc3)OCC2(C)C)no1` (stereo partly drawn) [compound 40, (5-methylisoxazol-3-yl)methyl 3-((4R)-5,5-dimethyl-2-oxido-2-(((S)-1-oxo-1-phenethoxypropan-2-yl)amino)-1,3,2-dioxaphosphinane-4-carboxamido)propanoate], the “PANK2−/− CoA (Fold Increase): fold increase in Coenzyme A (CoA) levels relative to controls” value in series [1] is listed as 2.77 Fold Increase. In addition, the half-life at 3 µM in series [2] (setting [4]) was greater than 60 min; in series [2] (setting [5]), greater than 60 min; in series [3] (mouse, plasma) it was less than 9.6 min. The “t1/2, Mouse Plasma, Diastereoisomer B” value in series [3] (mouse, plasma, 3 µM) is less than 9.6 min.
As to `CC(C)(C)C(=O)OCO[P@@]1(=O)OCC(C)(C)[C@H](C(=O)NCCC(=O)OCc2cncs2)O1` (single isomer, unassigned) [Compound No. 79], in series [1], the “PANK2−/− CoA (Fold Increase): fold increase in Coenzyme A (CoA) levels relative to controls” value was 133.6 Fold Increase. Moreover, the half-life at 3 µM in series [2] (setting [4]) is greater than 60 min; in series [2] (setting [5]), less than 9.6 min; in series [3] (mouse, plasma) it was less than 9.6 min. In addition, the “t1/2, Mouse Plasma, Diastereoisomer B” value in series [3] (mouse, plasma, 3 µM) was less than 9.6 min.
For the compound `COC(=O)CCNC(=O)[C@@H]1OP(=O)(N[C@H](C)C(=O)OCc2cnccn2)OCC1(C)C` (stereo in doubt) [compound 42, methyl 3-((2S,4R)-5,5-dimethyl-2-oxido-2-(((R)-1-oxo-1-(pyrazin-2-ylmethoxy)propan-2-yl)amino)-1,3,2-dioxaphosphinane-4-carboxamido)propanoate], the “PANK2−/− CoA (Fold Increase): fold increase in Coenzyme A (CoA) levels relative to controls” value in series [1] is reported as 2.42 Fold Increase. For the same compound, the half-life at 3 µM is greater than 60 min in series [2] (setting [4]) and less than 9.6 min in series [3] (mouse, plasma).
With `COC(=O)CCNC(=O)[C@@H]1OP(=O)(N[C@H](C)C(=O)OCCc2scnc2C)OCC1(C)C` (stereo partly drawn) [compound 32, methyl 3-((4R)-5,5-dimethyl-2-(((R)-1-(2-(4-methylthiazol-5-yl)ethoxy)-1-oxopropan-2-yl)amino)-2-oxido-1,3,2-dioxaphosphinane-4-carboxamido)propanoate], the “PANK2−/− CoA (Fold Increase): fold increase in Coenzyme A (CoA) levels relative to controls” value in series [1] came to 1.49 Fold Increase. In addition, the half-life at 3 µM in series [2] (setting [4]) is greater than 60 min; in series [2] (setting [5]) it was greater than 60 min; in series [3] (mouse, plasma) it was less than 9.6 min. In addition, the “t1/2, Mouse Plasma, Diastereoisomer B” value in series [3] (mouse, plasma, 3 µM) was less than 9.6 min.
With `COC(=O)CCNC(=O)[C@@H]1OP(=O)(OCOC(=O)OC(C)(C)C)OCC1(C)C` (stereo partly drawn) [compound 88, methyl 3-((4R)-2-(((tert-butoxycarbonyl)oxy)methoxy)-5,5-dimethyl-2-oxido-1,3,2-dioxaphosphinane-4-carboxamido)propanoate], the “PANK2−/− CoA (Fold Increase): fold increase in Coenzyme A (CoA) levels relative to controls” value in series [1] was 2.66 Fold Increase. For the same compound, the half-life at 3 µM in series [2] (setting [4]) was 42.6 min; in series [2] (setting [5]), 21.6 min; in series [3] (mouse, plasma) it was less than 9.6 min. The “t1/2, Mouse Plasma, Diastereoisomer B” value in series [3] (mouse, plasma, 3 µM) is less than 9.6 min.
Take `COC(=O)CCNC(=O)[C@@H]1OP(=O)(NCc2ccncc2)OCC1(C)C` (stereo partly drawn) [compound 125, methyl 3-((4R)-5,5-dimethyl-2-oxido-2-((pyridin-4-ylmethyl)amino)-1,3,2-dioxaphosphinane-4-carboxamido)propanoate]: in series [1], the “PANK2−/− CoA (Fold Increase): fold increase in Coenzyme A (CoA) levels relative to controls” value was found to be 1.99 Fold Increase. Further, the half-life at 3 µM in series [2] (setting [6]) is greater than 60 min; in series [3] (setting [7]), less than 9.6 min.

The values are drawn from patent US10364263B2, “Cyclic phosphates and cyclic phosphoramidates for the treatment of neurologic disorders” (Retrophin, Inc., priority 2015, dated 2019).
